Test results published in patent US20230277511A1, “RAPAMYCIN (RAPA) COMPOSITION AND PREPARATION METHOD THEREOF” (priority 2020, published 2023).

System: AS model mice (ApoE−/− mice)
Test: Therapeutic effect on AS in AS model mice (plaque area)
Assay type: in vivo
Settings: 1.5 mg/kg intraperitoneally every two days for 3 months, mean±SD, FIG. 10
Protocol: Animal: Apolipoprotein gene-knockout mice (ApoE−/− mice) each with a weight of 18 g to 25 g were purchased from Peking University Laboratory Animal Center.
Construction of AS model mice: The mice were raised to be 8 weeks old in an SPF-grade environment (room temperature: 23° C., relative humidity: 65%, and 12 h light-dark cycle) and then fed with a high-fat feed for 12 weeks to obtain the AS model mice, and then each of the AS model mice was administered. Blood vessels were collected and stained, and a proportion of a plaque area was calculated according to the following formula: AA:AA=P/PO. The data were expressed by mean±standard deviation (SD). The t-test was adopted for statistical analysis. P<0.05 indicated a significant difference. All data were analyzed by software.
Grouping and administration regimen: Blank group: Each of the mice was intraperitoneally injected with 0.2 mL of NS every two days. Control group: Each of the mice was intraperitoneally injected with a RAPA solution diluted with NS to a desired concentration (administration amount: 1.5 mg/kg) every two days. Drug group: Each of the mice was intraperitoneally injected with the RAPA composition in Example 4 at 1.5 mg/kg every two days. The administration was conducted continuously for 3 months, during which state changes in mice were observed. […]

## CO[C@H]1C[C@@H]2CC[C@@H](C)[C@@](O)(O2)C(=O)C(=O)N2CCCC[C@H]2C(=O)O[C@H]([C@H](C)C[C@@H]2CC[C@@H](O)[C@H](OC)C2)CC(=O)[C@H](C)/C=C(\C)[C@@H](O)[C@@H](OC)C(=O)[C@H](C)C[C@H](C)/C=C/C=C/C=C/1C [RAPA, rapamycin]
  plaque area/total vascular area: 48.33%±2.851%
